Structures are written as SMILES.

The test system of test [1] is VRE E155. Kind of test: Resistance development serial passage assay. The test is classed as cell-based, Enterococcus faecium. To be noted: VanA-type VRE strain serially passaged over 30 days in sub-lethal antibiotic concentrations. The method, then:
(§1) FIG. 3 illustrates the results obtained when selected compounds were assessed using a resistance development serial passage assay. A) Daily fold-increase of MIC compared to initial MIC against MRSA USA 300 grown in sub-lethal concentrations of daptomycin, compound 5 or compound 16 over 30 days. B). Daily fold-increase of MIC compared to initial MIC against VRE E155 grown in sub-lethal concentrations of daptomycin, compound 5 or compound 16 over 30 days.
(§2) From glycerol stocks, bacterial strains were cultured on blood agar plates and incubated overnight at 37° C. A single colony was grown to exponential phase (OD600=0.5) in TSB+0.002% p80 and diluted 1:100 in fresh media. In polypropylene 96-well microtiter plates, antibiotics were added in biological triplicates and serial diluted 2-fold by transfer and mixing from one well to the next to achieve a final volume of 50 μL per well. An equal volume of bacterial suspension was added to the wells and plates were incubated overnight at 37° C. […] This procedure was repeated for 30 days and the MIC was recorded daily. Cultures containing daptomycin were supplemented with 50 mg L^−1 CaCl2 and 10 mg L^−1 MgSO4. The experiment was performed in biological replicates and for each replicate the MIC was determined from the median of a minimum of triplicates.

Test [2] concerns MRSA USA 300. Kind of test: Resistance development serial passage assay. The test is classed as cell-based, Staphylococcus aureus. The following applies: MRSA serially passaged over 30 days in sub-lethal antibiotic concentrations. The method, then: as §1, §2

As to `CCCCCCCCCC(=O)N[C@@H](Cc1c[nH]c2ccccc12)C(=O)N[C@H](CC(N)=O)C(=O)N[C@@H](CC(=O)O)C(=O)N[C@@H]1C(=O)NCC(=O)N[C@@H](CCCN)C(=O)N[C@@H](CC(=O)O)C(=O)N[C@H](C)C(=O)N[C@@H](CC(=O)O)C(=O)NCC(=O)N[C@H](CO)C(=O)N[C@@H]([C@H](C)CC(=O)O)C(=O)N[C@@H](CC(=O)c2ccccc2N)C(=O)O[C@@H]1C` [daptomycin, reference compound], the entries for the “resistance induction, fold-increase of MIC compared to initial MIC” value in test [1] and in test [2] were 128 fold and 16 fold, respectively.

Values taken from US20230174584A1, “Antibiotic Compounds” (priority 2019, published 2023).
